Experimental data reported in patent US20220259265A1, “Inhibitors and Use Thereof in Cancer Treatment” (The University of Sydney, priority 2019, published 2022).
Ends that are not written are not given here. Peptide text beside a SMILES is read from it. * marks the point of attachment. 5TAMRA = CN(C)c1ccc2c(c1)Oc1cc(N(C)C)ccc1C21OC(=O)c2cc(C(=O)*)ccc21

Experiments:
[1] = tested on: IGFBP-3-NONO complexes in MDA-MB-468 cells; experiment: Proximity ligation assay (PLA), MDA-MB-468 cells; format: cell-based, human
Description: (§1) PLA was performed using the Duolink Detection Kit (Olink Bioscience Uppsala, Sweden) as previously described (Lin M Z et al., Oncogene, 2014, 33, 85-96). Briefly, cells were grown on 8-mm glass coverslips to 50% confluency, treated, and prepared for microscopy by fixing, permeabilizing and blocking. Coverslips were incubated with primary antibody pairs (raised in different species) targeting the proteins under investigation overnight at 4° C. […]; NONO (as above) and […]; IGFBP-3 (as above), 1:100. This was followed by incubation with PLA probes MINUS and PLUS for 1 h at 37° C., probe ligation for 30 min at 37° C. and amplification over 100 min at 37° C. Interactions were detected as amplified far-red signals using a Leica TCS SP5 confocal microscope (Leica Microsystems, Wetzlar, Germany) and quantitated using Image J software.

[2] = tested on: DNA end-joining activity in MDA-MB-468 cells; experiment: DNA end-joining assay, nuclear extracts of treated MDA-MB-468 cells; format: cell-based, human
Description: (§2) Nuclear extraction and end-joining assay was performed as previously described (Andrin C et al., J Blot Chem., 2004, 279, 25017-25023; Andrin C et al., Nucleus., 2012, 3, 384-395) with slight modifications. […] After isolation of nuclei by centrifugation through a buffer containing 300 mM sucrose, the washed nuclear pellet was extracted into high-salt buffer (20 mM Hepes, pH 7.5, 25% glycerol, 420 mM NaCl, 0.2 mM EDTA, 1.5 mM MgCl2) for 30 min on ice, and insoluble material was removed by centrifugation. The soluble nuclear extract was used in the end-joining assay. Restriction enzymes NheI and EcoRI (New England Biolabs, Ipswich, Mass., USA) were used to digest a EGFP-C1 plasmid (Clontech, Mountain View, Calif., USA) to generate a DNA fragment of 4 kb with non-homologous ends. The linearized plasmid was separated by 0.8% agarose gel electrophoresis, purified using a DNA gel extraction kit (Qiagen), and used as the substrate for end-joining assays. Nuclear extract (2 μg) was mixed with end-joining assay buffer (7.5 mM Tris pH 8.0, 0.2 mM CaCl2, 10 mM MgCl2, 50 mM KCl, 1.2 mM ATP and 0.5 mM DTT) and allowed to stand for 30 min at 22° C. Repair was initiated by adding 100 ng of prepared linearized DNA and incubated at 25° C. for 30 min, stopped by the addition of 0.5 M EDTA, 0.5% SDS and 10 mg/mL Proteinase K. DNA bands were separated on a 0.7% agarose gel, stained with SYBR Gold (Life Technologies), and visualized on a BioRad ChemiDoc imaging system.

[3] = tested on: IGFBP-3-NONO complexes in HCC1806 cells; experiment: Proximity ligation assay (PLA), HCC1806 cells; format: cell-based, human
Description: as §1

[4] = tested on: DNA end-joining activity in HCC1806 cells; experiment: DNA end-joining assay, nuclear extracts of treated HCC1806 cells; format: cell-based, human
Description: as §2, with “Repair was initiated by adding 100 ng of prepared linearized DNA and incubated at 25° C. for 30 min, stopped by the addition of 0.5 M EDTA, 0.5% SDS and 10 mg/mL Proteinase K. DNA bands were separated on a 0.7% agarose gel, stained with SYBR Gold (Life Technologies), and visualized on a BioRad ChemiDoc imaging system.” left out

[5] = tested on: γH2AX (DNA double-strand breaks) in MDA-MB-468 cells; experiment: γH2AX immunofluorescence, MDA-MB-468 cells; format: cell-based, human; conditions: olaparib 10 μM or veliparib 20 μM pre-treatment, etoposide 1 h (T0), 4 h recovery (T4)
Description: (§3) The human basal-like triple negative breast cancer (TNBC) cell lines MDA-MB-468 and HCC1806 were obtained from ATCC, Manassas, Va. and maintained in RPMI 1640 medium containing 5% FBS and 10 μg/mL bovine insulin under standard conditions. Cryopreserved stocks were established within 1 month of receipt, and fresh cultures for use in experiments were established from these stocks every 2 to 3 months.
(§4) Cells grown on 8-mm glass coverslips were washed three times with PBS, fixed with 4% paraformaldehyde for 15 min, permeabilized with 0.2% Triton X-100 for 5 min and blocked with 2% BSA for 1 h. Cells were then incubated with rabbit anti-phospho-histone γH2A.X (Ser139) (1:200; Cell Signaling Technology, #9718) overnight at 4° C., washed, and further incubated with anti-rabbit secondary antibody, tagged with Alexa Fluor 594 (Life Technologies, Carlsbad, Calif., USA). For controls, cells were treated with isotype-matched IgG from the same species. Slides were mounted using ProLong Gold Antifade Reagent (Life Technologies). […] Data were calculated from three replicate experiments.

[6] = tested on: γH2AX (DNA double-strand breaks) in HCC1806 cells; experiment: γH2AX immunofluorescence, HCC1806 cells; format: cell-based, human; conditions: olaparib 10 μM or veliparib 20 μM pre-treatment, etoposide 1 h (T0), 4 h recovery (T4)
Description: as §3, §4

[7] = tested on: HCC1806 breast cancer cells; experiment: Nuclear uptake of 5-TAMRA-labelled peptide, confocal microscopy (fixed and live cell imaging); format: cell-based, human
Description: The peptide was synthesised with the fluorescent dye 5-TAMRA (5-carboxytetramethyl-rhodamine) covalently bound at its amino-terminus. Since under some circumstances the fixation of cells prior to imaging may introduce artefacts, experiments were performed to detect the localisation of the peptide both with and without fixation of the cells. […] At the indicated time points, cells were washed three times with PBS, fixed with 4% paraformaldehyde for 15 min, washed three times and mounted on slides using ProLong Gold Antifade Reagent containing the nuclear stain DAPI (Life Technologies). Confocal fluorescence images were captured with a Leica TCS SP5 confocal laser scanning microscope (Leica Microsystems, Wetzlar, Germany). Live cell imaging (FIG. 8b): HCC1806 cells were plated in an 8-well chamber slide (Nunc Lab-Tek, Sigma Aldrich); 0.1 mg/mL Hoechst nuclear stain (Life Technologies) was added to the cells for 15 mins and imaged (0 min time point) using Leica TCS SP5 confocal microscope. […] Images were taken at the times indicated.

[8] = biological target: T1, IGFBP-3 complexes with NONO (NONO/SFPQ) in MDA-MB-468 cells (Homo sapiens, UniProt Q15233); experiment: Co-immunoprecipitation with IGFBP-3-Fab beads and western blotting, MDA-MB-468 cells; format: cell-based; conditions: 24 h preincubation with veliparib 20 μM or olaparib 10 μM prior to 20 μM etoposide
T1 construct: endogenous in cells; host or cells: MDA-MB-468; HCC1806
T1 sequence (Q15233 1-471): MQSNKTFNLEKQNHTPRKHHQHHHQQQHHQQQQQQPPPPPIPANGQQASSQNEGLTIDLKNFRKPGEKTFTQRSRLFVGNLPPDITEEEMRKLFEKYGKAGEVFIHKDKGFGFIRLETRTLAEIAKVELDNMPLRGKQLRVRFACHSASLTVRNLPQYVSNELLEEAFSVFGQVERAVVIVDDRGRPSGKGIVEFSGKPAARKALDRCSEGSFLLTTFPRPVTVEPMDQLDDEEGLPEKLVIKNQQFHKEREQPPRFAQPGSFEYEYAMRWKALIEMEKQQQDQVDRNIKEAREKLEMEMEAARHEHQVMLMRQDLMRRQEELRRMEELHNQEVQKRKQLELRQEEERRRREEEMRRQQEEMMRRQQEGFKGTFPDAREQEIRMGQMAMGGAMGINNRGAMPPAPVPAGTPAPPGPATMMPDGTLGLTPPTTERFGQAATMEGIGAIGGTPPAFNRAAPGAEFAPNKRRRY
T1 sequence (P23246 1-707 partner): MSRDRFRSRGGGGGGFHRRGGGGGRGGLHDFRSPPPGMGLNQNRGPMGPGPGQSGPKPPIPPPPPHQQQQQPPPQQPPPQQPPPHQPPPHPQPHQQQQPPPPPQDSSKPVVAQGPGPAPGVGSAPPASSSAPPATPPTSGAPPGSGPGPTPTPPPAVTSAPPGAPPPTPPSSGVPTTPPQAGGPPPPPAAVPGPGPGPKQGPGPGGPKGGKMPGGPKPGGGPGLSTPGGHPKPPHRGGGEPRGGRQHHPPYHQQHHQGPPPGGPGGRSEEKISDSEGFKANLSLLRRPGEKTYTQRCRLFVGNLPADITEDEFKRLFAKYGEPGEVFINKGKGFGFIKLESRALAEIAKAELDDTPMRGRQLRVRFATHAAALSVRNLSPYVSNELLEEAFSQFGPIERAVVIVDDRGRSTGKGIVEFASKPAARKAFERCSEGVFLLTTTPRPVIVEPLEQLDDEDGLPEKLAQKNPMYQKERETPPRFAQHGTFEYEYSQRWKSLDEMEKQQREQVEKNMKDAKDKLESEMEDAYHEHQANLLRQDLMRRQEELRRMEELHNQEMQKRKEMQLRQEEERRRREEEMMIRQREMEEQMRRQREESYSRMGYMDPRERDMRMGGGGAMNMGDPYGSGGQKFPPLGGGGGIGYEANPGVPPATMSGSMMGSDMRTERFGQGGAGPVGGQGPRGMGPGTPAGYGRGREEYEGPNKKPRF
Description: as §3

[9] = tested on: HCC1806 breast cancer cells; experiment: 14-day colony formation or clonogenic survival assay; format: cell-based, human; conditions: veliparib 5 μM
Description: HCC1806 cells (500 cells/well) were plated in 6-well plates for 24 h prior to being treated with or without 5 μM of PARPi (veliparib) for a further 24 h. […] Colonies were washed with PBS and stained using 0.5% Crystal Violet (Sigma Aldrich) in 20% methanol for 30 min prior to rinsing with water. Colonies, defined as clusters of at least 30 cells, were imaged and counted with an AID vSpot Spectrum imager (AutoImmun Diagnostika GmbH, Strassberg, Germany).
The 14-day colony formation or clonogenic survival assay measures the ability of cells to survive 2 days of chemotherapy-induced DNA damage, and form colonies of at least 30 cells over the next 12 days. […] The purpose was to find conditions under which the cells become more sensitive to this low dose of chemotherapy.

[10] = tested on: γH2AX signal in HCC1806 cells; experiment: γH2AX response to etoposide after peptide incubation (blot), HCC1806 cells; format: cell-based, human; conditions: 16 h incubation with peptide at 10 μM, 25 μM etoposide
Description: (§5) An elevated γH2AX signal is indicative of sustained DNA damage (i.e. inhibition of DNA repair) compared to the control cells. Peptide #66 was also evaluated in the presence of PARP inhibitors, veliparib (ABT-888) and olaparib (Lynparza). In FIG. 5e and FIG. 5f, the γH2AX signal in the absence of peptide #66 is expressed as 100%, and bars represent the ratio of γH2AX signal in the presence of the peptide, to that in its absence.

[11] = tested on: γH2AX signal in MDA-MB-468 cells; experiment: γH2AX response to etoposide after peptide incubation (blot), MDA-MB-468 cells; format: cell-based, human; conditions: 16 h incubation with peptide at 10 μM, 25 μM etoposide
Description: as §5

[12] = 20 μM veliparib or 10 μM olaparib 24 h, then 20 μM etoposide 2 h
[13] = 24 h preincubation with 20 μM veliparib, 2 h after 20 μM etoposide

COc1cc([C@@H]2c3cc4c(cc3[C@@H](O[C@@H]3O[C@@H]5CO[C@@H](C)O[C@H]5[C@H](O)[C@H]3O)[C@H]3COC(=O)[C@H]23)OCO4)cc(OC)c1O [etoposide]
Time of peak interaction between IGFBP-3 and NONO (PLA) ([1]; 20 μM etoposide, 0 to 4 h): ~2 h | Activity in direct DNA end-joining assay ([2]; 20 μM etoposide 2 h, nuclear extracts (FIG. 4e)): increased activity | Time of peak interaction between IGFBP-3 and NONO (PLA) ([3]; 20 μM etoposide, 0 to 4 h): ~2 h

O=C(c1cc(Cc2n[nH]c(=O)c3ccccc23)ccc1F)N1CCN(C(=O)C2CC2)CC1 [olaparib]
Inhibition of end joining activity [4, 12]: approximately 50% | Inhibition of end joining activity [2, 12]: approximately 50% | Effect on loss of γH2AX signal over 4 h recovery (DSB repair) [5]: significantly prevented the loss of γH2AX signal | Effect on loss of γH2AX signal over 4 h recovery (DSB repair) [6]: significantly prevented the loss of γH2AX signal

CC(C)C[C@H](NC(=O)[C@H](Cc1c[nH]cn1)NC(=O)c1ccc2c(c1)C(=O)OC21c2ccc(N(C)C)cc2Oc2cc(N(C)C)ccc21)C(=O)N[C@@H](CCCCN)C(=O)N[C@@H](Cc1ccccc1)C(=O)N[C@@H](CC(C)C)C(=O)N[C@@H](CC(N)=O)C(=O)N[C@H](C(=O)N[C@@H](CC(C)C)C(=O)N[C@@H](CO)C(=O)N1CCC[C@H]1C(=O)N[C@@H](CCCNC(=N)N)C(=O)NCC(=O)O)C(C)C [peptide #66 labelled with 5-TAMRA] (5TAMRA-HLKFLNVLSPRG-OH)
Time of peak colocalization of labelled peptide and nuclei ([7]; fixed cell imaging, or 10 μM labelled peptide): 30 min | Association of labelled peptide with cell nuclei ([7]; live cell imaging, 2.5 μM or 10 μM labelled peptide): associated with cell nuclei at 40 and 60 min, and even more so after 90 min

C[C@]1(c2nc3c(C(N)=O)cccc3[nH]2)CCCN1 [veliparib]
Effect on increase in IGFBP-3-NONO complexes (PLA) [1, 13]: abolished | Effect on IGFBP-3 complexes with NONO (immunoblotting after coIP) [8]: abolished | inhibition at 20 µM ([4]; Homo sapiens, HCC1806): ~50% | Inhibition of cell survival (colony formation) ([9]; cells exposed to 100 nM etoposide): about one-third | Inhibition of cell survival (colony formation) ([9]; in the absence of etoposide): about one-third | inhibition at 20 µM ([2]; Homo sapiens, MDA-MB-468): ~50% | Effect on loss of γH2AX signal over 4 h recovery (DSB repair) [5]: significantly prevented the loss of γH2AX signal | Effect on increase in IGFBP-3-NONO complexes (PLA) [3, 13]: abolished | Effect on loss of γH2AX signal over 4 h recovery (DSB repair) [6]: significantly prevented the loss of γH2AX signal

HLKFLNVLSPRG [Peptide #66]
Nuclear uptake of peptide ([7]; 5-TAMRA-labelled peptide, fixed and live cell imaging): rapid nuclear uptake

MEDTLNHLKFLN [compound 64]
γH2AX signal (sustained DNA damage) compared to no peptide [10]: low γH2AX signal | γH2AX signal (sustained DNA damage) compared to no peptide [11]: low γH2AX signal

TLNHLKFLNVLS [compound 65]
γH2AX signal (sustained DNA damage) compared to no peptide [10]: sustained γH2AX signal | γH2AX signal (sustained DNA damage) compared to no peptide [11]: sustained γH2AX signal
